The text below walks through data of patent publication US10137202B2 (priority 2014, dated 2018).

This experiment relates to HT1080 cells. Format: cell-based, human. Conditions: read-out: IC50 (CPA assay; nM).

Molecules are shown by their SMILES. Square brackets hold non-standard residues; d marks the D form. Peptide text beside a SMILES is read from it. * marks the point of attachment. Dolaproine = CO[C@@H]([C@@H]1CCCN1)[C@@H](C)C(=O)O; Dil = CC[C@H](C)[C@H](NC)[C@@H](CC(=O)O)OC; X3 = C[C@@H](N*)[C@@H](O)c1ccccc1; NMeV = CN[C@H](C(=O)O)C(C)C

For the compound `CC[C@H](C)[C@@H]([C@@H](CC(=O)N1CCC[C@H]1[C@H](OC)[C@@H](C)C(=O)N[C@H](C)[C@@H](O)c1ccccc1)OC)N(C)C(=O)[C@@H](NC(=O)[C@@H](NC)C(C)C)C(C)C` [MMAE, reference compound] (H-[NMeV]V[Dil][Dolaproine]-X3), the IC50 was in the range of 0.1 to 0.6 nM.
